# Tests used:
# Conditions in all cases: 72 h
# Caco-2 [1] = test: cell viability relative to DMSO; higher = less toxic
# Calu-3 [2] = test: as above
# HepG2 [3] = test: as above
# U2OS [4] = test: as above
# Vero E6 [5] = test: as above
# Caco-2 [6] = test: relative viability EC50 (midpoint between 100% and the lowest measured viability); higher = less toxic
# Calu-3 [7] = test: as above
# HepG2 [8] = test: as above
# U2OS [9] = test: as above
# Vero E6 [10] = test: as above
# Caco-2 [11] = test: drug sensitivity score (DSS) for viability; higher = more toxic; extreme values may be limits of the assay
# Calu-3 [12] = test: as above
# HepG2 [13] = test: as above
# U2OS [14] = test: as above
# Vero E6 [15] = test: as above
SMILES,cell viability (Caco-2 [1]; 1 nM) [%],cell viability (Caco-2 [1]; 10 nM) [%],cell viability (Caco-2 [1]; 100 nM) [%],cell viability (Caco-2 [1]; 1000 nM) [%],cell viability (Caco-2 [1]; 10000 nM) [%],cell viability (Calu-3 [2]; 1 nM) [%],cell viability (Calu-3 [2]; 10 nM) [%],cell viability (Calu-3 [2]; 100 nM) [%],cell viability (Calu-3 [2]; 1000 nM) [%],cell viability (Calu-3 [2]; 10000 nM) [%],cell viability (HepG2 [3]; 1 nM) [%],cell viability (HepG2 [3]; 10 nM) [%],cell viability (HepG2 [3]; 100 nM) [%],cell viability (HepG2 [3]; 1000 nM) [%],cell viability (HepG2 [3]; 10000 nM) [%],cell viability (U2OS [4]; 1 nM) [%],cell viability (U2OS [4]; 10 nM) [%],cell viability (U2OS [4]; 100 nM) [%],cell viability (U2OS [4]; 1000 nM) [%],cell viability (U2OS [4]; 10000 nM) [%],cell viability (Vero E6 [5]; 1 nM) [%],cell viability (Vero E6 [5]; 10 nM) [%],cell viability (Vero E6 [5]; 100 nM) [%],cell viability (Vero E6 [5]; 1000 nM) [%],cell viability (Vero E6 [5]; 10000 nM) [%],relative viability EC50 (Caco-2 [6]) [µM],relative viability EC50 (Calu-3 [7]) [µM],relative viability EC50 (HepG2 [8]) [µM],relative viability EC50 (U2OS [9]) [µM],relative viability EC50 (Vero E6 [10]) [µM],drug sensitivity score (Caco-2 [11]),drug sensitivity score (Calu-3 [12]),drug sensitivity score (HepG2 [13]),drug sensitivity score (U2OS [14]),drug sensitivity score (Vero E6 [15])
CO[C@H](C(=O)[C@@H](O)[C@@H](C)O)[C@@H]1Cc2cc3cc(O[C@H]4C[C@@H](O[C@H]5C[C@@H](O)[C@H](O)[C@@H](C)O5)[C@@H](O)[C@@H](C)O4)c(C)c(O)c3c(O)c2C(=O)[C@H]1O[C@H]1C[C@@H](O[C@H]2C[C@@H](O[C@H]3C[C@](C)(O)[C@H](O)[C@@H](C)O3)[C@H](O)[C@@H](C)O2)[C@H](O)[C@@H](C)O1 [plicamycin],101,95,42.4,58.1,65.5,107,88.4,48.5,24,28.1,107,99.9,5.2,4.4,6.1,96.4,100,5.9,1,1.5,92.6,105,95.6,73.5,4.9,0.0245,0.0509,0.0321,0.036,1.46,18.9,20.8,29.1,29.5,9.2
COCCCN1CCC(NC(=O)c2cc(Cl)c(N)c3c2OCC3)CC1 [prucalopride],102,82.8,102,102,101,104,97,90.1,97.6,94.9,96.7,102,96.5,91,96.5,96.9,97.7,97.7,97.9,102,106,103,105,101,95,> 10,> 10,> 10,> 10,> 10,0,0,0,0,0
COc1[nH]c2ccc(F)cc2c1C(=O)OCC1CCN(CCNS(C)(=O)=O)CC1,103,99.3,96.7,98.2,98.3,96,94.3,92.2,105,107,98.7,105,97.2,101,94.6,104,94.5,100,97.2,98.9,103,108,102,104,97.3,> 10,> 10,> 10,> 10,> 10,0,0,0,0,0
CCOC(=O)[C@H](CCc1ccccc1)N[C@@H](C)C(=O)N(CC(=O)O)C1Cc2ccccc2C1 [delapril],106,103,98.2,111,95.4,98.6,101,92.3,90.6,106,105,102,98.3,96.7,98,100,93.1,103,98.6,98,107,102,111,107,99.7,> 10,> 10,> 10,> 10,> 10,0,0,0,0,0
COC(=O)[C@@H](N)CCCNC(=N)N[N+](=O)[O-] [L-NAME],94.6,97.3,94.4,97.8,106,96,106,99.6,94.7,114,97.4,104,94.5,95.4,116,101,97.9,103,101,110,97.7,96.6,99.9,98.6,105,> 10,> 10,> 10,> 10,> 10,0,0,0,0,0
c1cnc(NCc2ccc(CNc3ncccn3)cc2)nc1 [MSX-122],92.9,100,107,112,99.2,104,100,109,99.4,113,90.6,103,102,92.3,101,94.7,103,106,99.4,99.8,101,98.6,100,103,99.1,> 10,> 10,> 10,> 10,> 10,0,0,0,0,0
C[C@@H]1C[C@H]2[C@@H]3C[C@H](F)C4=CC(=O)C=C[C@]4(C)[C@@]3(F)[C@@H](O)C[C@]2(C)[C@@]1(O)C(=O)CO [flumethasone],84.6,94.5,106,94.1,103,95.5,100,106,92.2,101,96.8,109,96.1,91.2,91.8,96.6,93.5,98.1,92.1,92.7,107,105,97,105,101,> 10,> 10,> 10,> 10,> 10,0,0,0,0,0
COC(=O)CC[C@@H]1N=C(c2ccccn2)c2cc(Br)ccc2-n2c(C)cnc21 [remimazolam],95.2,101,95.3,99.2,91.7,104,94.1,111,90,95.2,97.1,83.5,103,100,108,96.4,105,97.7,98,97.8,103,96.5,99.3,96,99.8,> 10,> 10,> 10,> 10,> 10,0,0,0,0,0
CC(C)(O)CS(=O)(=O)Nc1ccc2c(c1)CCN(C(=O)COc1cccnc1)C2 [Nampt-IN-1],100,99.8,84.5,4,3.7,93.2,88.1,50.8,6.2,5.7,98.2,100,50.2,20.1,16.2,108,104,6.2,-0.1,0.1,105,103,104,3.3,2.4,0.193,0.0828,0.0823,0.0392,0.348,20,22.9,21.2,29.3,17.1
C=C1/C(=C\C=C2/CCC[C@]3(C)[C@@H]([C@H](C)/C=C/C=C/C(O)(CC)CC)CC[C@@H]23)C[C@@H](O)C[C@@H]1O [seocalcitol],98.5,87.2,97.4,98.5,97.4,107,102,99.2,95.7,94.9,104,97.3,99.3,112,99.4,99.9,95.5,105,96.5,89.6,96,93.5,88.7,96.6,96.7,> 10,> 10,> 10,> 10,> 10,0,0,0,0,0
CNC(=O)c1cccc(-c2ccc3c(N4CCOC[C@@H]4C)nc(N4CCOC[C@@H]4C)nc3n2)c1 [AZD2014],106,98.5,83.8,38.8,30.6,89.4,87.5,74.3,27.7,22.9,94,95.4,86.4,39,22,95.8,94.9,96.7,66.7,19.4,94.7,99.4,85.4,70.1,37.2,0.235,0.154,0.348,1.2,0.762,13.3,16.1,13,8.5,7.5
Cc1ccsc1C(=CCCN1CCC[C@@H](C(=O)O)C1)c1sccc1C [tiagabine],93.5,97.9,102,92.3,106,117,103,99.8,98.1,100,96,103,97.3,103,98.6,101,94.2,101,98,94.2,98.2,100,92.4,104,106,> 10,> 10,> 10,> 10,> 10,0,0,0,0,0
NC(=O)CN1Cc2ccccc2OC1=O [caroxazone],109,102,101,96,104,103,93.2,93.7,105,101,101,94.6,101,93.1,100,100,99,101,95.3,102,99.5,99.8,101,96.9,96.4,> 10,> 10,> 10,> 10,> 10,0,0,0,0,0

# — the supplement of paper PMC13380429
